Laboratory results published in publication PMC11736144, “A sleepy cannabis constituent: cannabinol and its active metabolite influence sleep architecture in rats” (Neuropsychopharmacology, 2024).
Read-outs that look alike come from different tables or passages of the source.

Key:
[1] = tested on: rats; details: cited from earlier work
[2] = tested on: male Long-Evans rats; assay: Acute polysomnography (wireless EEG/EMG telemetry) in rats
[3] = tested on: rats; set-up: method as in PMID 168604; details: cited from earlier work
[4] = tested on: male Long-Evans rats; assay: Repeated CBN dosing (15 days) polysomnography in rats; assay type: in vivo, rat; details: CBN 10 mg/kg IP daily for 15 days
Description: In the repeated dosing experiment, eight rats were randomly assigned to vehicle condition and eight to the CBN 10 mg/kg condition. Rats were administered the same treatment at ZT13 each day for 15 days, however, telemetry recordings were taken on days 1, 8, and 15 of respective treatments, and the response was compared between subjects.

[5] = cited from earlier work
[6] = tested on: non-clinical sample of poor sleepers; set-up: method as in PMID 37796540; details: 20 mg CBN alone, self-reported measures, vs placebo; cited from earlier work
[7] = rats, oral vs IP of the current study; cited from earlier work
[8] = target: T1, human CB1 receptors (Homo sapiens, UniProt P21554); set-up: expressed in transfected cells; method as in PMID 7565624, PMID 9690851; details: some studies; cited from earlier work
T1 sequence (P21554 whole entry): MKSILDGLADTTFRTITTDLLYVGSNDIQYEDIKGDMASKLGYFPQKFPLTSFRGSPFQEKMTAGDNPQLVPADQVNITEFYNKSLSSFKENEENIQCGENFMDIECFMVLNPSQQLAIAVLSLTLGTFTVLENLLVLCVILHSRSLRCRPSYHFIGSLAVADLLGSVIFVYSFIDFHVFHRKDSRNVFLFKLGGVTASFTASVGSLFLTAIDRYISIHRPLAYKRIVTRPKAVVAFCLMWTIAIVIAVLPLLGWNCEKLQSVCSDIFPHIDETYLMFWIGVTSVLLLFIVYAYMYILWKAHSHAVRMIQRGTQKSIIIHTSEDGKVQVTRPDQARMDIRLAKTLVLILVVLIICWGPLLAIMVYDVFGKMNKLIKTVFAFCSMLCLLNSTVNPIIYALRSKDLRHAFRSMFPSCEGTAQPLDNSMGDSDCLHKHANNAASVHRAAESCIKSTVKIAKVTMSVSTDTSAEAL

[9] = Pharmacokinetic analysis of CBN and metabolites in rat plasma and brain (LC-MS/MS); assay type: in vivo
Description: Rats received 10 mg/kg CBN IP at approximately ZT13. Rats were then anesthetized with isoflurane at selected ZT points (13, 13.5, 14, 15, 17, 19, and 21) and blood was collected by terminal cardiac puncture. Brains were harvested, snap frozen on dry ice and plasma was isolated via centrifugation at 9000 × g for 10 min at 4 °C. All tissues were stored at −80 °C until analysis. CBN and metabolite concentrations in plasma and brain samples were assayed by liquid chromatography-tandem mass spectrometry (LC–MS/MS) using a using a Shimadzu Nexera LC-30AD UHPLC system coupled to a Shimadzu SPD-20AV photodiode array detector and a Shimadzu LC–MS-8040 triple-quadrupole mass spectrometer, equipped with an electrospray ionization (ESI) source (Shimadzu Corp.; Kyoto, Japan) as described previously.
LC-MS/MS. Plasma samples (50 µL) were spiked with internal standard (12.5 µg/mL d3-THC, 5 µL) and protein precipitation was achieved by vortex-mixing with a 3x volume of ice-cold acetonitrile. The organic layer was isolated by centrifugation (6000 g for 10 min, 4 °C) and evaporated to dryness using N2 gas. Samples were reconstituted in acetonitrile (90 µL) and 0.1% ammonium formate in water (300 µL) for supported-liquid extraction (SLE) using dichloromethane and methyl tert-butyl ether Biotage Isolute SLE+ columns (Uppsala, Sweden) as previously described. Brain samples were prepared as described for plasma samples with minor modifications. Briefly, each half brain was homogenised in methanol: water (2:1, 10x, w/v) and spiked with d3-THC as an internal standard. Homogenates were centrifuged (20,000 g for 30 min, 4 °C). Supernatants were then extracted and prepared as described above.
Quantification of CBN, 11-OH-CBN and 11-COOH-CBN in plasma and brain samples was performed by comparing experimental samples to eight-point standard curves prepared with known amounts of cannabinoid. Plasma and brain concentrations at each time point were averaged and pharmacokinetic parameters were calculated by noncompartmental analysis. Elimination rate constants were determined by linear regression of the terminal component of the concentration-time curve using GraphPad Prism 8.2 (La Jolla, USA). The log-linear trapezoidal method was used to calculate the area under concentration-time curve using equations described previously.

[10] = target: T2, human CB2 receptors (Homo sapiens, UniProt P34972); assay: Membrane potential (GIRK) assay in AtT20 cells, human CB2; assay type: cell-based; details: at 10 µM; normalized to 1 µM CP 55,940
T2 construct: expressed in transfected cells; host or cells: mouse AtT20 FlpIn cells
T2 sequence (P34972 whole entry): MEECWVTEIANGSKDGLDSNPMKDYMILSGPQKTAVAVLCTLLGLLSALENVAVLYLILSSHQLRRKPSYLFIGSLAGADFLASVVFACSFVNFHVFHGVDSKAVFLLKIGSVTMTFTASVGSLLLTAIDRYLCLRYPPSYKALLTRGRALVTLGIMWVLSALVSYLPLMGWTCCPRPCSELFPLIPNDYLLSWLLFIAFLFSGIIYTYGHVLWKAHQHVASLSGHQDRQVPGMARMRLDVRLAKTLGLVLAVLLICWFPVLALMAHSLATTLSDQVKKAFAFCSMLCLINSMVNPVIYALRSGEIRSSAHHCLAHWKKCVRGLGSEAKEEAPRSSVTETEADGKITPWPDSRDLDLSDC

[11] = target: T1, human CB1 receptors; assay: cell-based; assay type: cell-based; set-up: expressed in transfected cells; host or cells: mouse AtT20 FlpIn cells
[12] = rats, 10 and 30 mg/kg CBN IP, CBN 99.2% pure with 0.8% Δ8-THC, ref Järbe et al (1987)
[13] = acute IP at ZT13 vs vehicle, CBN 10, 30, 100 mg/kg, 11-OH-CBN 1, 3, 10 mg/kg
[14] = acute IP at ZT13 vs vehicle, CBN 10, 30, 100 mg/kg, zolpidem 10 mg/kg, 11-OH-CBN 1, 3, 10 mg/kg
[15] = days 1, 8, 15, not subject to tolerance

For `CCCCCc1cc(O)c2c(c1)OC(C)(C)c1ccc(C)cc1-2` [CBN, cannabinol], the “body temperature or locomotor activity” value ([1]; CBN up to 80 mg/kg IP, ref Fernandes et al (1974)) is listed as “did not influence”, the body temperature [1, 12] is listed as “reduced” and the locomotor activity [1, 12] is listed as “suppressed”. The “% NREM sleep compared to vehicle” value ([2]; CBN 10 mg/kg and 100 mg/kg, various time points from ZT16–20) was “significantly increased”, the “cumulative total sleep time” value ([2]; CBN 10 mg/kg dose only, from ZT17) was “significantly increased” and the “NREM delta power at specific time points” value ([2]; CBN 30 mg/kg and 100 mg/kg at ZT17 and 18, zolpidem 10 mg/kg at ZT13 and 14) was “increase”. For the same compound, the NREM delta power ([2]; EEG power spectra, overall effect, acute IP, CBN 10, 30, 100 mg/kg, zolpidem 10 mg/kg, 11-OH-CBN 1, 3, 10 mg/kg) was “Neither CBN nor zolpidem had robust effects”, the REM theta power ([2]; EEG power spectra, acute IP, CBN 10, 30, 100 mg/kg, zolpidem 10 mg/kg, 11-OH-CBN 1, 3, 10 mg/kg) was “increased” and the “delayed onset of action on % NREM sleep, time post-dosing” value ([2]; acute IP at ZT13) was 3 to 4 h. The total sleep time ([2]; acute IP at ZT13 (dark phase) vs vehicle, CBN 10, 30, 100 mg/kg, zolpidem 10 mg/kg, 11-OH-CBN 1, 3, 10 mg/kg, n = 8) was “increased”, the “cumulative NREM time” value [2, 13] was “biphasic effect” and the “cumulative REM time” value [2, 13] was “similarly influenced”. The “% NREM sleep” value [2, 14] was “increased”, the “% REM sleep” value [2, 14] was “initially suppressed % REM, before it increased % REM at ZT17-18” and the “% active wake” value [2, 14] was “decreased”. For the same compound, the “% quiet wake” value [2, 14] was “affected”, the “NREM sleep onset latency” value [2, 14] was “did not affect” and the REM bout duration [2, 14] was “initially decreased REM bout duration and then increased duration of REM bouts”. The REM bout number [2, 14] was “biphasically influenced”, the “REM sleep onset latency” value [2, 14] was “increased” and the “cumulative total sleep time” value [2, 14] was “biphasic effects”. The “mean duration of NREM bouts per hour” value [2, 14] was “increased”, the “number of NREM bouts per hour” value [2, 14] was “decreased” and the total wake time [2, 14] was “decreased”. The body temperature ([2]; subcutaneous, telemetry, acute IP, CBN 10, 30, 100 mg/kg, zolpidem 10 mg/kg, 11-OH-CBN 1, 3, 10 mg/kg) was “did not robustly effect”, the locomotor activity counts ([2]; telemetry, acute IP, CBN 10, 30, 100 mg/kg, zolpidem 10 mg/kg, 11-OH-CBN 1, 3, 10 mg/kg) was “decreased” and the pentobarbital-induced sleep time [3] was “prolonged”. The “% NREM” value ([4]; days 1, 8, 15) was “increased % NREM initially on days 1 and 8, however this effect was diminished by day 15”, the “% REM” value ([4]; days 1, 8, 15) was “affected” and the “% quiet wake” value ([4]; days 1, 8, 15) was “affected”. The REM bout duration ([4]; days 1, 8, 15) was “affected”, the REM bout number ([4]; days 1, 8, 15) was “affected” and the total wake time ([4]; days 1, 8, 15) was “decreased”. For the same compound, the “NREM sleep onset latency” value ([4]; days 1, 8, 15, main effect) was “increased”, the “REM sleep onset latency” value ([4]; days 1, 8, 15, main effect) was “increased” and the NREM bout duration [4, 15] was “increased”. The NREM bout number [4, 15] was “decreased”, the “% active wake” value ([4]; days 1, 8, 15, subject to tolerance) was “decreased” and the “total sleep time over days” value ([4]; recordings days 1, 8, 15, between-subjects vs vehicle, n = 8) was “increased”. The “highest plasma CBN concentration (Cmax) following cannabis smoking” value [5] was 11.6 ng/mL, the “number of awakenings and overall sleep disturbance” value [6] was “significantly reduced” and the sleep onset latency [6] was “did not influence”. The “plasma exposures (AUC), oral lower than intraperitoneal at the same dose” value [7] was about 5 fold, the “activity at human CB1 receptors” value [8] was “inactive” and the Tmax ([9]; ip, rat brain after CBN 10 mg/kg, read-out: brain Tmax) was 2 h. The Tmax ([9]; ip, rat plasma after CBN 10 mg/kg, read-out: plasma Tmax (converted)) was 0.5 h, the half-life ([9]; ip, rat, after CBN 10 mg/kg, similar in plasma and brain, read-out: half-life in plasma and brain (converted)) was about 2 h and the “Brain AUC∞” value ([9]; rat brain after CBN 10 mg/kg IP, analyte as labelled) was 1623 pg hour/mg brain. For the same compound, the “Brain Cmax” value ([9]; rat brain after CBN 10 mg/kg IP, analyte as labelled, n = 4) was 373 ± 26 pg/mg brain, the half-life ([9]; rat brain after CBN 10 mg/kg IP, analyte as labelled, read-out: Brain t½ (converted)) was 2.2 h and the “Brain Cmax” value ([9]; rat brain following systemic administration of CBN) was 1.2 µM. For the same compound, the “Plasma AUC∞” value ([9]; rat plasma after CBN 10 mg/kg IP, analyte as labelled) was 775 ng·h/mL, the Cmax ([9]; rat plasma after CBN 10 mg/kg IP, analyte as labelled, n = 4) was 374 ± 34 ng/mL and the half-life ([9]; rat plasma after CBN 10 mg/kg IP, analyte as labelled, read-out: Plasma t½ (converted)) was 1.93 h. For the same compound, the Brain/plasma ratio ([9]; rat, after CBN 10 mg/kg IP, analyte as labelled) was about 2, the Kp ([9]; rat, brain and plasma, ip, 10 mg/kg, rat, after CBN 10 mg/kg IP, analyte as labelled, read-out: Brain/plasma ratio) was 2.09 and the Cmax ([9]; rat, plasma, intraperitoneal, rats, 10 mg/kg CBN dose) was 374 ng/mL. The “activity at CB2” value [10] was under 20%, the EC50 [11] was 3.98 µM and the “activity at CB1 receptors (in words)” value [11] was “low activity”. It also gave an Emax ([11]; AtT20, read-out: maximal response (Emax)) of 29 ± 3%.
